Measured values published in patent US10259810B2, “N-sulfonylated pyrazolo[3,4-b]pyridin-6-carboxamides and method of use” (AbbVie S.à.r.l., priority 2015, dated 2019).

Tests used:
[1] = biological target: T1, ΔF508-CFTR (Homo sapiens, UniProt P13569, DEL508-508); assay: CFTR cell surface levels using HRP-tagged ΔF508-CFTR expressing CFBE cells, in the presence of a co-corrector; format: cell-based; details: HRP-tagged ΔF508-CFTR CFBE cells, in the presence of 3 μM co-corrector; for EC50: read-out: EC50
T1 construct: host or cells: CFBE41o-, doxycycline-inducible
Procedure, shortened: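 Chemiluminescent read-out of surface HRP (15 min, dark) after PBS washes. Activity is normalized as 100×(sample−DMSO)/(3 μM co-corrector alone−DMSO).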

[2] = biological target: T1, ΔF508-CFTR; assay: CFTR cell surface levels using HRP-tagged ΔF508-CFTR expressing CFBE cells, intrinsic corrector capacity; format: cell-based; design: % Activation: concentration or dose not given beside the values; details: HRP-tagged ΔF508-CFTR expressing CFBE41o- cells, compound alone (intrinsic corrector capacity), 20 hours at 33° C.; for EC50: read-out: EC50
Procedure, shortened: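 Read-out: chemiluminescent HRP activity of ECL4-HRP-tagged ΔF508-CFTR at the cell surface, 15 min substrate in dark. Normalized as 100×(sample−DMSO)/(positive control−DMSO).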

T1 sequence (P13569 with tags, fused parts or gaps DEL508-508): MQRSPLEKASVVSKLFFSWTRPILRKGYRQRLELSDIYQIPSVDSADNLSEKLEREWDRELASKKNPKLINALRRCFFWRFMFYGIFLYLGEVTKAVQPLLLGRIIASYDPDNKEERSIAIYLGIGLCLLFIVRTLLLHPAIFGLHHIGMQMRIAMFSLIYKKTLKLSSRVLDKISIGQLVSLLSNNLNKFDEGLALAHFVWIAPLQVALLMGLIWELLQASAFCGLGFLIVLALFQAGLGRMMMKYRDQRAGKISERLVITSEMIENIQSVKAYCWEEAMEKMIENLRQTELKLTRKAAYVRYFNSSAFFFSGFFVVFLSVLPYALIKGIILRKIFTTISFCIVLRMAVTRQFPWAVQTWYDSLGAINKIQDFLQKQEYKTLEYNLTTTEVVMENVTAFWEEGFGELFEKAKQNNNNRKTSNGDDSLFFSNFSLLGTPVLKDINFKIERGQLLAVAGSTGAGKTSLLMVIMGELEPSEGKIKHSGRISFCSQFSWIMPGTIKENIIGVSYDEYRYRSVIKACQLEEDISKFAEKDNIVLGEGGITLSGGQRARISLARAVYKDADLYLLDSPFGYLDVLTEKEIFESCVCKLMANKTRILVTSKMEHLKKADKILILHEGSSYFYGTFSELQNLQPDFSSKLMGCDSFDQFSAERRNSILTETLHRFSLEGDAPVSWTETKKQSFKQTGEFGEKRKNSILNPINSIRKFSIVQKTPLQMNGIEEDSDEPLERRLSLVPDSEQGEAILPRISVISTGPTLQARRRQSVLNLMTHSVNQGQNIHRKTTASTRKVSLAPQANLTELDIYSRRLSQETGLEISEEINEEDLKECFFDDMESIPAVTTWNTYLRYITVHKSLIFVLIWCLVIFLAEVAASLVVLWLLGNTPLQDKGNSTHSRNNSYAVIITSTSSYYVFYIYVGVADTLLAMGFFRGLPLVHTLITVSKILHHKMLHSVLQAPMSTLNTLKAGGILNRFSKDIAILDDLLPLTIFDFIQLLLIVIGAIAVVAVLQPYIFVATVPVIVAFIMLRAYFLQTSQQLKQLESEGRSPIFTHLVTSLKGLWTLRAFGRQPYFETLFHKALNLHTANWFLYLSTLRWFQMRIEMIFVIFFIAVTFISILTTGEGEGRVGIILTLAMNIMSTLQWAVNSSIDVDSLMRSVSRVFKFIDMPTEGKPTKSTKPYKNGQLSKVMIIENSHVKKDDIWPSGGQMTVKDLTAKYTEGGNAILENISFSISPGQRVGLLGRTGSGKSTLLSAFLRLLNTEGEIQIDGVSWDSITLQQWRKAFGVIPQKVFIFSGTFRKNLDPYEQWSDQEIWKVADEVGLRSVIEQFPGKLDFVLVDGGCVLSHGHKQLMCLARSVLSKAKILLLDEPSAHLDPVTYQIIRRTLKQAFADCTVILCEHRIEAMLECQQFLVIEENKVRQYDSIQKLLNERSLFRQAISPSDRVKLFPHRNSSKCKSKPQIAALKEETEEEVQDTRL

SMILES	% Activation [1] [%]	EC50 [1] [nM]	% Activation [2] [%]	EC50 [2] [nM]
CC(C)c1nn(-c2ccc(F)cc2)c2nc(C(=O)NS(C)(=O)=O)cc(C3CCN(C(=O)OC(C)(C)C)CC3)c12 [Compound 378, tert-butyl 4-[1-(4-fluorophenyl)-6-[(methanesulfonyl)carbamoyl]-3-(propan-2-yl)-1H-pyrazolo[3,4-b]pyridin-4-yl]piperidine-1-carboxylate]	318.6	658	160	1330
COCCN(C)c1ncc(-c2cc(C(=O)NS(C)(=O)=O)nc3c2c(C(C)C)nn3C2CCCCC2)cn1 [Compound 120, 1-cyclohexyl-N-(methanesulfonyl)-4-{2-[(2-methoxyethyl)(methyl)amino]pyrimidin-5-yl}-3-(propan-2-yl)-1H-pyrazolo[3,4-b]pyridine-6-carboxamide]	351.03	348	169.2	554
CC(C)c1nn(-c2ccc(F)cc2)c2nc(C(=O)NS(C)(=O)=O)cc(OCC3COCCN3C(C)C)c12 (stereo not shown) [Compound 310, 1-(4-fluorophenyl)-N-(methanesulfonyl)-3-(propan-2-yl)-4-{[4-(propan-2-yl)morpholin-3-yl]methoxy}-1H-pyrazolo[3,4-b]pyridine-6-carboxamide]	251.5	924	66.84	692
Cc1cccc(-n2nc(C(C)C)c3c(N4CCCCC4)cc(C(=O)NS(C)(=O)=O)nc32)c1 [Compound 101, N-(methanesulfonyl)-1-(3-methylphenyl)-4-(piperidin-1-yl)-3-(propan-2-yl)-1H-pyrazolo[3,4-b]pyridine-6-carboxamide]	455.4	409	254.85	839
CCOC(=O)N1CCC(NS(=O)(=O)NC(=O)c2cc(N3CCC(N4CCOCC4)CC3)c3c(C4CCC4)nn(-c4ccccc4)c3n2)CC1 [Compound 433, ethyl 4-[({3-cyclobutyl-4-[4-(morpholin-4-yl)piperidin-1-yl]-1-phenyl-1H-pyrazolo[3,4-b]pyridine-6-carbonyl}sulfamoyl)amino]piperidine-1-carboxylate]	563.8	49	361.5	96.5
CS(=O)(=O)NC(=O)c1cc(-c2ccc(N3CCC(C#N)CC3)nc2)c2c(n1)n(-c1ccccc1)nc2[C@H]1C[C@H](F)C1 [Compound 210, 4-[6-(4-cyanopiperidin-1-yl)pyridin-3-yl]-3-(trans-3-fluorocyclobutyl)-N-(methanesulfonyl)-1-phenyl-1H-pyrazolo[3,4-b]pyridine-6-carboxamide]	390.57	174	205.57	286
CN(C1CCOCC1)C1CCN(c2cc(C(=O)NS(=O)(=O)N(C)C)nc3c2c(C2CCC2)nn3-c2ccc(F)cc2)CC1 [Compound 528, 3-cyclobutyl-N-(dimethylsulfamoyl)-1-(4-fluorophenyl)-4-{4-[methyl(oxan-4-yl)amino]piperidin-1-yl}-1H-pyrazolo[3,4-b]pyridine-6-carboxamide]	357.9	834	185.8	859
CS(=O)(=O)NC(=O)c1cc(N2CCC(N3CCCCC3)CC2)c2c(C3CCC3)nn(-c3ccc(F)cc3)c2n1 [Compound 450, 4-([1,4'-bipiperidin]-1'-yl)-3-cyclobutyl-1-(4-fluorophenyl)-N-(methanesulfonyl)-1H-pyrazolo[3,4-b]pyridine-6-carboxamide]	443.25	246	253.5	617
O=C(c1cc(N2CCC(CN3CCCC3)CC2)c2c(C3CCC3)nn(-c3ccccc3)c2n1)N1CCCS1(=O)=O [Compound 661, 2-(3-cyclobutyl-1-phenyl-4-{4-[(pyrrolidin-1-yl)methyl]piperidin-1-yl}-1H-pyrazolo[3,4-b]pyridine-6-carbonyl)-1λ^6,2-thiazolidine-1,1-dione]	227.45	135	67.125	155
CC(C)c1nn(-c2ccc(F)cc2)c2nc(C(=O)NS(C)(=O)=O)cc(OCCCN3CCOCC3)c12 [Compound 292, 1-(4-fluorophenyl)-N-(methanesulfonyl)-4-[3-(morpholin-4-yl)propoxy]-3-(propan-2-yl)-1H-pyrazolo[3,4-b]pyridine-6-carboxamide]	422.55	565	217.9	1060
CC(=O)N1CCC(COc2cc(C(=O)NS(C)(=O)=O)nc3c2c(C2CCC2)nn3-c2ccccc2)CC1 [Compound 296, 4-[(1-acetylpiperidin-4-yl)methoxy]-3-cyclobutyl-N-(methanesulfonyl)-1-phenyl-1H-pyrazolo[3,4-b]pyridine-6-carboxamide]	329.13	168	154.7	396
COCC1CCN(c2cc(C(=O)NS(C)(=O)=O)nc3c2c(C(C)C)nn3CC(C)C)CC1 [Compound 264, N-(methanesulfonyl)-4-[4-(methoxymethyl)piperidin-1-yl]-1-(2-methylpropyl)-3-(propan-2-yl)-1H-pyrazolo[3,4-b]pyridine-6-carboxamide]	478.6	3330	242.5	969
CCS(=O)(=O)NC(=O)c1cc(-c2ccc(OC)cc2)c2c(C)nn(-c3ccccc3)c2n1 [Compound 15, N-(ethanesulfonyl)-4-(4-methoxyphenyl)-3-methyl-1-phenyl-1H-pyrazolo[3,4-b]pyridine-6-carboxamide]	346.15	852	151.65	1190
CCS(=O)(=O)NC(=O)c1cc(N2CCC(N3CCOCC3)CC2)c2c(C3CCC3)nn(-c3ccccc3)c2n1 [Compound 437, 3-cyclobutyl-N-(ethanesulfonyl)-4-[4-(morpholin-4-yl)piperidin-1-yl]-1-phenyl-1H-pyrazolo[3,4-b]pyridine-6-carboxamide]	563.64	–	353.8	–
CC(C)c1nn(-c2cccc(N3CC(O)C3)c2)c2nc(C(=O)NS(C)(=O)=O)cc(-c3ccc(N4CCOCC4)cc3)c12 [Compound 105, 1-[3-(3-hydroxyazetidin-1-yl)phenyl]-N-(methanesulfonyl)-4-[4-(morpholin-4-yl)phenyl]-3-(propan-2-yl)-1H-pyrazolo[3,4-b]pyridine-6-carboxamide]	457.85	699	258.1	908
CCS(=O)(=O)NC(=O)c1cc(-c2ccc(OC)cc2)c2c(C)nn(-c3cccc(C)c3)c2n1 [Compound 28, N-(ethanesulfonyl)-4-(4-methoxyphenyl)-3-methyl-1-(3-methylphenyl)-1H-pyrazolo[3,4-b]pyridine-6-carboxamide]	354.45	942	149.7	1220
CN(C)S(=O)(=O)NC(=O)c1cc(N2CCC(N3CCN(C4COC4)CC3)CC2)c2c(C3CCC3)nn(-c3ccc(F)cc3)c2n1 [Compound 615, 3-cyclobutyl-N-(dimethylsulfamoyl)-1-(4-fluorophenyl)-4-{4-[4-(oxetan-3-yl)piperazin-1-yl]piperidin-1-yl}-1H-pyrazolo[3,4-b]pyridine-6-carboxamide]	450.85	130	255.3	482
COCC1CCN(c2cc(C(=O)NS(C)(=O)=O)nc3c2c(C(C)C)nn3CC2CCC2)CC1 [Compound 262, 1-(cyclobutylmethyl)-N-(methanesulfonyl)-4-[4-(methoxymethyl)piperidin-1-yl]-3-(propan-2-yl)-1H-pyrazolo[3,4-b]pyridine-6-carboxamide]	420.17	523	232.07	598
COc1cc(F)cc(-n2nc(C)c3c(-c4c(F)cc(OC)cc4F)cc(C(=O)NS(C)(=O)=O)nc32)c1 [Compound 129, 4-(2,6-difluoro-4-methoxyphenyl)-1-(3-fluoro-5-methoxyphenyl)-N-(methanesulfonyl)-3-methyl-1H-pyrazolo[3,4-b]pyridine-6-carboxamide]	307.3	790	187.5	1330
CC(C)Oc1nn(C2CCCCC2)c2nc(C(=O)NS(C)(=O)=O)cc(-c3ccc(C(=O)N4CC(N(C)C)C4)cc3)c12 [Compound 640, 1-cyclohexyl-4-{4-[3-(dimethylamino)azetidine-1-carbonyl]phenyl}-N-(methanesulfonyl)-3-[(propan-2-yl)oxy]-1H-pyrazolo[3,4-b]pyridine-6-carboxamide]	416.48	107	203.62	175
CCS(=O)(=O)NC(=O)c1cc(-c2ccc(N3CCOCC3)nc2)c2c(C)nn(C3CCCCC3)c2n1 [Compound 48, 1-cyclohexyl-N-(ethanesulfonyl)-3-methyl-4-[6-(morpholin-4-yl)pyridin-3-yl]-1H-pyrazolo[3,4-b]pyridine-6-carboxamide]	417.8	1150	160.9	1200
